In experiment [1] the target is EGFR (Homo sapiens, UniProt P00533). The experiment is described as follows: In vitro EGFR-TK inhibition assay. The format is biochemical.
Experiment [2] deals with T1, COX-1 (Ovis aries, UniProt P05979).
T1 sequence (P05979 25-600): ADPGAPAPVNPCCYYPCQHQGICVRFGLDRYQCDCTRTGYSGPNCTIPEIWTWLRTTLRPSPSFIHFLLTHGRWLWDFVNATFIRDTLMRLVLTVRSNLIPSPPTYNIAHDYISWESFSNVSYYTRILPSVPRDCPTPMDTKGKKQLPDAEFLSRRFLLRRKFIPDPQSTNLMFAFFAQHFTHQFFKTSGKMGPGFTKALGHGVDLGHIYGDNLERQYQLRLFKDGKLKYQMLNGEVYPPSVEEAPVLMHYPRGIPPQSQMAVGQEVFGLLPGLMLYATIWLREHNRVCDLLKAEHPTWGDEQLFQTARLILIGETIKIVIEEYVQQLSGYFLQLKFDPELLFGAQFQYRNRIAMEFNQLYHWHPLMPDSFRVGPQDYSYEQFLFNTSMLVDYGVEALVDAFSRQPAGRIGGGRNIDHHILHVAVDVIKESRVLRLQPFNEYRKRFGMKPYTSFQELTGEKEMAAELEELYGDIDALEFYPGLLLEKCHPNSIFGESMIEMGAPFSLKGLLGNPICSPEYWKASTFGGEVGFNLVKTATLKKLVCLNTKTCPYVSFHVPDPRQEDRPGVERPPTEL
In words: In vitro cyclooxygenase. The format is biochemical, ovine.

Experiment [3] relates to MCF-7 cancer cell line. The experiment is described as follows: MTT assay, anticancer activity against MCF-7. The class given is cell-based. The conditions noted are these: Homo sapiens. For orientation: Formazan colour is commonly taken as a measure of viable cells.
Experiment [4] has as its system MCF-7, HepG2 and HCT-116 cancer cell lines. In words: MTT assay, statements over the three cancer cell lines together. The format is cell-based.
Experiment [5] has as its target T2, COX-2 (Ovis aries, UniProt P79208).
T2 sequence (P79208 17-603): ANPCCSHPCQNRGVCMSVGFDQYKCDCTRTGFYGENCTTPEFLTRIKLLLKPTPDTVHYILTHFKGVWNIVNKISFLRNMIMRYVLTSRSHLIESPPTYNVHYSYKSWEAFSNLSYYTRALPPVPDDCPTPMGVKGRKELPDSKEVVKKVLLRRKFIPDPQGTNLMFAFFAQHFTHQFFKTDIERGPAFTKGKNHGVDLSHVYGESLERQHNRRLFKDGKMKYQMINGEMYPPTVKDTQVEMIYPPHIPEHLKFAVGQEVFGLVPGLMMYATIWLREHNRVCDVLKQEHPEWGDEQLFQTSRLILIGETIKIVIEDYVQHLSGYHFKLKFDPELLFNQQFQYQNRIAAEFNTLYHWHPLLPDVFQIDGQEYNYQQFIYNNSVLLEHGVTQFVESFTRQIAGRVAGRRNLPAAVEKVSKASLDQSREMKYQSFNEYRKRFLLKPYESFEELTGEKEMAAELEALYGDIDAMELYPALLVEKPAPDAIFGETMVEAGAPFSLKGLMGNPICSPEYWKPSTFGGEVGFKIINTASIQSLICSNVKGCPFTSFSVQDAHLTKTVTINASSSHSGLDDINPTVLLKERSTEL
In words: In vitro cyclooxygenase. The format is biochemical, ovine.

For experiment [6], the system named is HCT-116 cancer cell line. The experiment is described as follows: MTT assay, anticancer activity against HCT-116. The class given is cell-based. The conditions noted are these: Homo sapiens.
In experiment [7] the test system is HepG2 cancer cell line. In words: MTT assay, anticancer activity against HepG2. The note with it: Homo sapiens. The format is cell-based.

Chain of EGFR (P00533 25-1210): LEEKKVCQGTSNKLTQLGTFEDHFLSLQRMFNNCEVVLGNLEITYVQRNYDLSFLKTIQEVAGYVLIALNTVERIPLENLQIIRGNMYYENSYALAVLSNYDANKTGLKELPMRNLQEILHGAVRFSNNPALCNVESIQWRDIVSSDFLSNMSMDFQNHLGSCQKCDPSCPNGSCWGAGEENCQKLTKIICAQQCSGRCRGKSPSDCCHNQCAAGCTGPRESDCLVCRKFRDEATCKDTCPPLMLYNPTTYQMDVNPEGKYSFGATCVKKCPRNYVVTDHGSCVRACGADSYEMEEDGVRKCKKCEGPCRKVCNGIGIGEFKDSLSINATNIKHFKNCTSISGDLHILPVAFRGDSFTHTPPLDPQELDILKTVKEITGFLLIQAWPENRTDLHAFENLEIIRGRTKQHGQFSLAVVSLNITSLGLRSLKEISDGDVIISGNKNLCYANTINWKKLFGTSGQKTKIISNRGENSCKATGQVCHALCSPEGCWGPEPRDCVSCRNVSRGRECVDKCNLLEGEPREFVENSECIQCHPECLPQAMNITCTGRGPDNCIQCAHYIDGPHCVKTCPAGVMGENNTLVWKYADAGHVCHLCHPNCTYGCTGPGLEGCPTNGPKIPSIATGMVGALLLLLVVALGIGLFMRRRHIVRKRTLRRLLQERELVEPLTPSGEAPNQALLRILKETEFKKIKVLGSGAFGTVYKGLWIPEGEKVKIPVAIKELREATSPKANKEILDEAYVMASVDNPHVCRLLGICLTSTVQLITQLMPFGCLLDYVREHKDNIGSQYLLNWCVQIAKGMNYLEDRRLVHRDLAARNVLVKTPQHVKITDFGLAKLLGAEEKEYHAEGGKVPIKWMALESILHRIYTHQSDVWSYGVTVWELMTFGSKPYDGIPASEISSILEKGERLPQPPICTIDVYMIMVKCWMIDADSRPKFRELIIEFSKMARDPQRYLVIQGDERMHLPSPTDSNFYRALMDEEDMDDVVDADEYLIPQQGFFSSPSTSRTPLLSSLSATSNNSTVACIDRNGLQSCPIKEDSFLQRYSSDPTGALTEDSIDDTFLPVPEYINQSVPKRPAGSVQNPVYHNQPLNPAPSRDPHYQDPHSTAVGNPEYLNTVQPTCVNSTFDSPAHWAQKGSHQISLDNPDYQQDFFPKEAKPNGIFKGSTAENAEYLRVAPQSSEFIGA

Take `Cn1c(=O)c(C(=O)NNC(=S)Nc2ccccc2)nc2ccccc21` [Compound 13, 2-(4-Methyl-3-oxo-3,4-dihydroquinoxaline-2-carbonyl)-N-phenylhydrazine-carbothioamide]: the IC50 (in general, the concentration needed to halve the response being measured) in experiment [1] is 400 ± 20 nM; in experiment [2] it was 30400 ± 1630 nM; in experiment [3] (MCF7, 48 h, read-out: Anticancer activity IC50), 810 ± 130 nM; in experiment [4] (read-out: Anticancer activity IC50 against the three cancer cell lines) it was 810 to 2910 nM; in experiment [5], 460 ± 60 nM; in experiment [6] (HCT-116, 48 h, read-out: Anticancer activity IC50) it was 1120 ± 190 nM. Further, in experiment [7] (HepG2, 48 h, read-out: Anticancer activity IC50), the IC50 was determined as 960 ± 90 nM. The inhibition (in general, the change of the read-out against control, counted positive when it falls) at 10 µM was 95.39 ± 0.27% in experiment [3] (MCF7, read-out: Cell growth inhibition (GI%)); ≥ 88.7% in experiment [4] (read-out: Growth inhibition against the three cancer cell lines); 97.87 ± 0.19% in experiment [6] (HCT-116, read-out: Cell growth inhibition (GI%)); 96.75 ± 0.29% in experiment [7] (HepG2, read-out: Cell growth inhibition (GI%)). Also, in experiment [5] (IC50 (COX-1)/IC50 (COX-2)), the “SI (selectivity index)” value was found to be 66.11.
